Measurements: patent US7018345B2, “Iontophoresis system” (Hisamitsu Pharmaceutical Co., Inc., priority 2002, dated 2006)
Where two headings read alike, the source gives them in different places.

Test: Iontophoretic administration of salmon calcitonin to beagles, blood level by RIA
Type: in vivo, beagle (dog)
Details: for level at 0.5 h: beagle, dog, blood, pulse depolarization iontophoresis 0.2 mA for 30 min, measured 30 minutes later, beagles under pentobarbital anesthesia, read-out: blood concentration of salmon calcitonin
Description: Beagles were put under pentobarbital anesthesia. A positive electrode pad containing salmon calcitonin 1000 unit (an extraction pad of an electrode structure applied to the mucous membrane of the mouth) was applied to the mucous membrane of the mouth of each beagle. A negative electrode (a counter pad of an electrode structure applied to the skin) was applied to the ear of the beagle. A pulse depolarization type iontophoresis system was used to apply a 0.2-mA current for 30 minutes. Then, 30 minutes later, the level of salmon calcitonin in the blood was measured. An RIA kit (ROIK6003, Peninsula) was used for quantification.
As in the case with Example 3, salmon calcitonin was administered to beagles under pentobarbital anesthesia. However, the positive electrode pad was not applied to the mucous membrane of the mouth but to the skin (belly). The negative electrode was applied to the ear. The other conditions are similar to those for Example 3.
FIG. 4 is a graph showing the blood concentration observed 30 minutes after the application of the present system to the mucous membrane of the mouth (Example 3) and to the skin (Comparative Example 1). The blood concentration was about 530 pg/ml 30 minutes after salmon calcitonin was administered to the dog via the mucous membrane of the mouth (Example 3). The blood concentration was about 90 pg/ml 30 minutes after salmon calcitonin was administered to the dog via the skin (Comparative Example 1). Calcitonin is ionized, but owing to its […], calcitonin permeates through the living body as a result of the flow of water caused by iontophoresis instead of its direct electric driving force.

level at 0.5 h (topical or ocular, Comparative Example 1: positive electrode pad (1000 unit) on skin (belly)): ~0.09 ng/mL | level at 0.5 h (Example 3: positive electrode pad (1000 unit) on mucous membrane of the mouth): ~0.53 ng/mL | absorptivity of mucous membrane relative to skin (iontophoresis, mucous membrane vs skin): six
Compound: CC(C)C[C@H](NC(=O)[C@H](CCCCN)NC(=O)CNC(=O)[C@H](CC(C)C)NC(=O)[C@@H](NC(=O)[C@@H]1CSSC[C@H](N)C(=O)N[C@@H](CO)C(=O)N[C@@H](CC(N)=O)C(=O)N[C@@H](CC(C)C)C(=O)N[C@@H](CO)C(=O)N[C@@H]([C@@H](C)O)C(=O)N1)C(C)C)C(=O)N[C@@H](CO)C(=O)N[C@@H](CCC(N)=O)C(=O)N[C@@H](CCC(=O)O)C(=O)N[C@@H](CC(C)C)C(=O)N[C@@H](Cc1c[nH]cn1)C(=O)N[C@@H](CCCCN)C(=O)N[C@@H](CC(C)C)C(=O)N[C@@H](CCC(N)=O)C(=O)N[C@H](C(=O)N[C@@H](Cc1ccc(O)cc1)C(=O)N1CCC[C@H]1C(=O)N[C@@H](CCCNC(=N)N)C(=O)N[C@H](C(=O)N[C@@H](CC(N)=O)C(=O)N[C@H](C(=O)NCC(=O)N[C@@H](CO)C(=O)NCC(=O)N[C@H](C(=O)N1CCC[C@H]1C(N)=O)[C@@H](C)O)[C@@H](C)O)[C@@H](C)O)[C@@H](C)O [salmon calcitonin]
